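96-well plates; 48 h exposure; 5 concentrations. Endpoints by linear interpolation between flanking doses. Not reached: highest tested concentration assigned. GI50 is the concentration that inhibits growth by half. TGI denotes the concentration required for complete inhibition of growth.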
Legend:
Test in all cases: DTP human tumour cell line panel, 48 h
[1] = test system: CAKI-1 renal
[2] = test system: HCC-2998 colon
[3] = test system: HOP-92 NSCLC
[4] = test system: DU-145 prostate
[5] = test system: HCT-15 colon
[6] = test system: OVCAR-8 ovarian
[7] = test system: SNB-75 CNS
[8] = test system: U251 CNS
[9] = test system: NCI-H522 lung
[10] = test system: SNB-19 CNS
[11] = test system: SK-MEL-28 melanoma
[12] = test system: OVCAR-5 ovarian
[13] = test system: IGROV1 ovarian
[14] = test system: RPMI-8226 leukemia
[15] = test system: SF-295 CNS
[16] = test system: MOLT-4 leukemia
[17] = test system: MCF7 breast
[18] = test system: HT29 colon
[19] = test system: SN12C renal
[20] = test system: HCT-116 colon
[21] = test system: NCI-H23 lung
[22] = test system: SF-539 CNS
[23] = test system: SK-OV-3 ovarian
[24] = test system: M14 melanoma
[25] = test system: TK-10 renal

In the case of N#Cc1cccc(C(=O)Nc2cccc(NC(=O)c3cccc(C#N)c3)c2)c1, the TGI [1] is reported as over 100 µM, the GI50 [2] is reported as over 100 µM and the TGI [2] is reported as over 100 µM. The GI50 [3] was 60.4 µM, the TGI [3] was over 100 µM and the GI50 [4] was 66.6 µM. It also gave a TGI [4] of over 100 µM, a GI50 [5] of 73.9 µM and a TGI [5] of over 100 µM. For the same compound, the GI50 [6] was 47.3 µM, the TGI [6] was over 100 µM and the GI50 [7] was over 100 µM. It also gave a TGI [7] of over 100 µM, a GI50 [8] of 69.3 µM and a TGI [8] of over 100 µM. The GI50 [9] was over 100 µM, the TGI [9] was over 100 µM and the GI50 [10] was over 100 µM. It also gave a TGI [10] of over 100 µM, a GI50 [11] of over 100 µM and a TGI [11] of over 100 µM. It also gave a GI50 [12] of over 100 µM, a TGI [12] of over 100 µM and a GI50 [13] of over 100 µM. The TGI [13] was over 100 µM, the GI50 [14] was 52 µM and the TGI [14] was over 100 µM. The GI50 [15] was over 100 µM, the TGI [15] was over 100 µM and the GI50 [16] was 86.5 µM. It also gave a TGI [16] of over 100 µM, a GI50 [17] of 90.9 µM and a TGI [17] of over 100 µM. For the same compound, the GI50 [18] was over 100 µM, the TGI [18] was over 100 µM and the GI50 [19] was 34.1 µM. For the same compound, the TGI [19] was over 100 µM, the GI50 [20] was 78.1 µM and the TGI [20] was over 100 µM. The GI50 [21] was 89 µM, the TGI [21] was over 100 µM and the GI50 [22] was 57.7 µM. The TGI [22] was over 100 µM, the GI50 [23] was over 100 µM and the TGI [23] was over 100 µM. The GI50 [24] was over 100 µM, the TGI [24] was over 100 µM and the GI50 [25] was 52.5 µM. It also gave a TGI [25] of over 100 µM.
